In patent US12331044B2, “Inhibitors of histone deacetylase useful for the treatment or prevention of HIV infection” (Merck Sharp & Dohme LLC, priority 2018, dated 2025):
Read-outs that look alike come from different tables or passages of the source.

Legend:
human HDAC1 = human HDAC1 (Homo sapiens (Human), UniProt Q13547); test: biochemical
KARN cells (Jurkat 2C4) = test: cells; conditions: Homo sapiens
human HDAC2 = human HDAC2 (Homo sapiens (Human), UniProt Q92769); test: HDAC2 inhibition assay (modified FLUOR DE LYS, 384-well); assay type: biochemical; conditions: […] nM enzyme, 40 μM substrate BML-KI104, 3 h pre-incubation; read-out: HDAC2 IC50
Sequence of human HDAC2 (Q92769 whole entry): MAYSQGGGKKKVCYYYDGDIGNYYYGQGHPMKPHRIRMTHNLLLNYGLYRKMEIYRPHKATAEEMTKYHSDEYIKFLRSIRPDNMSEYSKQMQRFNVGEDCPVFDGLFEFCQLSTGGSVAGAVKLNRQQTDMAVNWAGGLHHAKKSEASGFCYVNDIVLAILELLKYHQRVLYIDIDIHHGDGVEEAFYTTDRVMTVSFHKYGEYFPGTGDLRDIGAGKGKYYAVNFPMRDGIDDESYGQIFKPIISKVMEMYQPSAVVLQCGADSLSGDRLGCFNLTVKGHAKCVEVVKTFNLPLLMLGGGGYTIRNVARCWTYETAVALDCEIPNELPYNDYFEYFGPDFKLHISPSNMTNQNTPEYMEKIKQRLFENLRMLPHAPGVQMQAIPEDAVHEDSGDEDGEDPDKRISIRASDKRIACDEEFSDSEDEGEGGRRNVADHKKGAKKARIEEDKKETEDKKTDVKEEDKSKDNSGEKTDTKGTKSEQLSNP

[1] = target: human HDAC3/SMRT heterodimer (Homo sapiens (Human), UniProt O15379); test: biochemical
Sequence of human HDAC3/SMRT heterodimer (O15379 whole entry): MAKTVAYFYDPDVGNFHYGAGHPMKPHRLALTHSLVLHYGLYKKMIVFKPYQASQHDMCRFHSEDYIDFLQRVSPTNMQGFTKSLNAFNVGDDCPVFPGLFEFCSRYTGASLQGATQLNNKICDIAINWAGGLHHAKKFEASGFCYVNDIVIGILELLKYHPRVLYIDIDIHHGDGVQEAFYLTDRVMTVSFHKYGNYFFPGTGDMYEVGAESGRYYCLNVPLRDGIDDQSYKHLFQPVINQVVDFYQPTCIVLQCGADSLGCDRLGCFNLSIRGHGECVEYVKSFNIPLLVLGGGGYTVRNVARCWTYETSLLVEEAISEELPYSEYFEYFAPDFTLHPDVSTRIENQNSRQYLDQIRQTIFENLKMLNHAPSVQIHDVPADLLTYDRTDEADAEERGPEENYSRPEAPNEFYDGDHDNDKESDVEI
Sequence of human HDAC3/SMRT heterodimer (Q9Y618 1-899 partner): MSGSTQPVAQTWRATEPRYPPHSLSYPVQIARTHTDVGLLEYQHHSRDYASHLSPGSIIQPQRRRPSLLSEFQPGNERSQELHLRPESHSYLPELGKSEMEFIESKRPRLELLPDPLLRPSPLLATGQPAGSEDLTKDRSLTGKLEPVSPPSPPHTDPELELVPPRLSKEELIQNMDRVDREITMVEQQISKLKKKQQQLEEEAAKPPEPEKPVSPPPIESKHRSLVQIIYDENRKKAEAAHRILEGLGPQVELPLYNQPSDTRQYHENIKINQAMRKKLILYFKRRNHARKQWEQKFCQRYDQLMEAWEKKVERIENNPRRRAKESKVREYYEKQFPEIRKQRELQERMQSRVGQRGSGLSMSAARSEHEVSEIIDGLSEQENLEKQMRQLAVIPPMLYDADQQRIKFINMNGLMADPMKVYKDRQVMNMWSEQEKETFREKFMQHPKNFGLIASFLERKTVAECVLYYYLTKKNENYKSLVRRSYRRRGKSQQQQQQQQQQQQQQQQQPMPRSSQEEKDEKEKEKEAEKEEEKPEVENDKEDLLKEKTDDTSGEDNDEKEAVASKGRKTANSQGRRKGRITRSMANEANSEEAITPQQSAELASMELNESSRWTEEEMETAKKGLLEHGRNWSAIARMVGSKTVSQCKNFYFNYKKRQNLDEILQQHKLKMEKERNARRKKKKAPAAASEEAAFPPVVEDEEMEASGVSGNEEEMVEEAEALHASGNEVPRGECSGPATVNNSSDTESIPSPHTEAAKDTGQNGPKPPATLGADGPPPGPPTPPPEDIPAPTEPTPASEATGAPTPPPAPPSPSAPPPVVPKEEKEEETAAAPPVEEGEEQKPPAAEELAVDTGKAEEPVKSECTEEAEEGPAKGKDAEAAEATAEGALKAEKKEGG

HDAC6 = HDAC6 (Homo sapiens (Human), UniProt Q9UBN7); test: biochemical
Sequence of HDAC6 (Q9UBN7 whole entry): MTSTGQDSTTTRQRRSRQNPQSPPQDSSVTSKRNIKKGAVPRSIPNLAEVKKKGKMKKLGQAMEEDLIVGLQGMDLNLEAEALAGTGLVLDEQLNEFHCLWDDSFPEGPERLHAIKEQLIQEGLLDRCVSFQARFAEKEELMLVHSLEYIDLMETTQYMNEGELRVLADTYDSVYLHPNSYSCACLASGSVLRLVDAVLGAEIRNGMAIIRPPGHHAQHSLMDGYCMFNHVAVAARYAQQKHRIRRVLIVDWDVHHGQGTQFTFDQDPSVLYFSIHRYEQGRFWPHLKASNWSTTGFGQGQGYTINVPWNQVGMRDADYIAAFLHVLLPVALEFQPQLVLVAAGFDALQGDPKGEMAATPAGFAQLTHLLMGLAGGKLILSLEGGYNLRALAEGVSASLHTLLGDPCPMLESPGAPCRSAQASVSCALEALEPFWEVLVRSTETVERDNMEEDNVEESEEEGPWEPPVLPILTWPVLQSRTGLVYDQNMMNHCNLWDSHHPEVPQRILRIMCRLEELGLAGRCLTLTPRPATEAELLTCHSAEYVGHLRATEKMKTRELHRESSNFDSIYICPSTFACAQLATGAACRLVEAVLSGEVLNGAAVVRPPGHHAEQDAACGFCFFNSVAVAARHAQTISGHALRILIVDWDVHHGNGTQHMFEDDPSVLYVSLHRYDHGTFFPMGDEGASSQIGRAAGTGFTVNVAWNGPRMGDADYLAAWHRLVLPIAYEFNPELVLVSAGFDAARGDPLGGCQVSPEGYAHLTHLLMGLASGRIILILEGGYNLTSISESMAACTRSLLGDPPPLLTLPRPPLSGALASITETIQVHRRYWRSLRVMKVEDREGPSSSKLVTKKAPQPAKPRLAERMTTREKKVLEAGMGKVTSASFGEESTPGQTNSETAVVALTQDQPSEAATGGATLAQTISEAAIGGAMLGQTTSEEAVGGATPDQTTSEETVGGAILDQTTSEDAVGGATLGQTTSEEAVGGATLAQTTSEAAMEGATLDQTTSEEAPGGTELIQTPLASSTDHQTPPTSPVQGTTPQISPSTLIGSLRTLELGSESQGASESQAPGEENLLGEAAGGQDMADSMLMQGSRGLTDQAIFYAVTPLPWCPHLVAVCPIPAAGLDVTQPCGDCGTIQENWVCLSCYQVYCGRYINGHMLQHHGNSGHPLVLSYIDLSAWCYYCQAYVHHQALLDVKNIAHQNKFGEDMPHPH
Experimental: The histone deacetylase activities of HDAC1, HDAC2, HDAC3, HDAC6, and HDAC8 were measured in modified FLUOR DE LYS assays in 384-well format. In this assay, HDAC enzymes are initially incubated with an F-acetyl (or -trifluoroacetyl)-L-lysine-containing substrate with a C-terminal amide having aminomethylcoumarin as the amine component. HDACs cleave the F-acetyl group, rendering the resulting product susceptible to AMC cleavage by trypsin. The released AMC is then detected by its fluorescence. […] All steps were performed at room temperature (23° C.). The assay was performed by pre-incubating serial dilutions of test compounds with the target HDAC prior to initiation with substrate. […] Final conditions used for each assay were: 1. […] The reactions were stopped and developed by addition of 30 ul of HDAC developer solution containing a saturating level of HDAC inhibitor as follows: 1. […] For data analysis, background subtracted product (fluorescence) vs. time data for each inhibitor concentration was fitted using a 4-parameter fit.

human HDAC8 = human HDAC8 (Homo sapiens (Human), UniProt Q9BY41); test: HDAC8 inhibition assay (modified FLUOR DE LYS, 384-well); assay type: biochemical; conditions: […] nM enzyme, 200 μM substrate BML-KI178, 3 h pre-incubation; read-out: HDAC8 IC50
Sequence of human HDAC8 (Q9BY41 whole entry): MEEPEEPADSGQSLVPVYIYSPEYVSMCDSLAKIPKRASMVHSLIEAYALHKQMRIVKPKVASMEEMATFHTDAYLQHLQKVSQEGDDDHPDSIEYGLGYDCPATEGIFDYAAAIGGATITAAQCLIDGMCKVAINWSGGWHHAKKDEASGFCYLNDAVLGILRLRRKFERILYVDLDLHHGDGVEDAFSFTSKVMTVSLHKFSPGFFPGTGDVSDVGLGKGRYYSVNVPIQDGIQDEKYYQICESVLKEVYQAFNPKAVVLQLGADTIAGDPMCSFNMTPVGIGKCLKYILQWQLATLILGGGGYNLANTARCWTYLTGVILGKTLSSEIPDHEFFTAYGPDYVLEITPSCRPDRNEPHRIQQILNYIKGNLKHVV

[2] = read-out: Karn EC50 nM 0.1% NHS, 0.1% normal human serum, luciferase induction, 2 μM SAHA = 100%
[3] = read-out: Karn EC50 nM 5% NHS, 5% normal human serum, luciferase induction, 2 μM SAHA = 100%
[4] = read-out: Karn EC50 nM 0.1% NHS

Sequence of human HDAC1 (Q13547 whole entry): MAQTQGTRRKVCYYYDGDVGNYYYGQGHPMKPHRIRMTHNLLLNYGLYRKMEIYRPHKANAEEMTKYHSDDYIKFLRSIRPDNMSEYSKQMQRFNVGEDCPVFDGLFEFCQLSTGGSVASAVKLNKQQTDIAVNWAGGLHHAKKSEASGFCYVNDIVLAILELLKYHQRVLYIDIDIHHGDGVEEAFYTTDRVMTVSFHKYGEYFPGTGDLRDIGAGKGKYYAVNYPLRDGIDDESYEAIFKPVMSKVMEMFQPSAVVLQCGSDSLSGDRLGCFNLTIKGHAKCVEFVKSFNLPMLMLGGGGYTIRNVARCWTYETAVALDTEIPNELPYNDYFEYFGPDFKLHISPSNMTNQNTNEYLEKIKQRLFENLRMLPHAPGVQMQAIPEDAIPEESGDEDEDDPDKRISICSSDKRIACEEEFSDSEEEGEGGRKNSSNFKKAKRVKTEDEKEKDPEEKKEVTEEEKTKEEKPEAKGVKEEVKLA

Compound	IC50 (human HDAC1) [nM]	EC50 (KARN cells (Jurkat 2C4); [2]) [nM]	EC50 (KARN cells (Jurkat 2C4); [3]) [nM]	IC50 (human HDAC2) [nM]	IC50 [1] [nM]	IC50 (HDAC6) [nM]	IC50 (human HDAC8) [nM]	EC50 (KARN cells (Jurkat 2C4); [4]) [nM]	EC50 (KARN cells (Jurkat 2C4); read-out: Karn EC50 nM 5% NHS) [nM]
CN(C)CC(=O)N[C@@H](CCCCCC(=O)c1ccon1)c1nc(Cl)c(-c2ccc(F)cc2)[nH]1 [Example 194, (S)-N-(1-(4-chloro-5-(4-fluorophenyl)-1H-imidazol-2-yl)-7-(isoxazol-3-yl)-7-oxoheptyl)-2-(dimethylamino)acetamide]	0.2	3.2	15	0.69	0.1	9500	19	–	–
COc1ncccc1-c1cnc([C@@H](N)CCCCCC(=O)c2ncco2)o1 [Example 28, (S)-7-amino-7-(5-(2-methoxypyridin-3-yl)oxazol-2-yl)-1-(oxazol-2-yl)heptan-1-one]	9	1900	2000	32	9.4	655	> 900	–	–
COc1ncccc1-c1cnc(C(CCCCCC(=O)c2ncco2)NC(=O)[C@H]2CC23CCN(C)CC3)o1 (stereo partly drawn) [Example 114, (1S)-N-(1-(5-(2-methoxypyridin-3-yl)oxazol-2-yl)-7-(oxazol-2-yl)-7-oxoheptyl)-6-methyl-6-azaspiro[2.5]octane-1-carboxamide]	26	3400	4200	120	13	> 900	> 900	–	–
CC(=O)N[C@@H](CCCCCC(=O)c1ncco1)c1ncc(-c2ccc3nc(C)ccc3c2)[nH]1 [Example 87, (S)-N-(1-(5-(2-methylquinolin-6-yl)-1H-imidazol-2-yl)-7-(oxazol-2-yl)-7-oxoheptyl)acetamide]	0.69	–	–	5.7	1.8	8600	130	43	60
N[C@@H](CCCCCC(=O)c1ncco1)c1ncc(-c2ccc3ncccc3c2)[nH]1 [Example 16, (S)-7-amino-1-(oxazol-2-yl)-7-(5-(quinolin-6-yl)-1H-imidazol-2-yl)heptan-1-one]	2.7	120	170	8.8	2.6	33000	1400	–	–
CCN1CCC2(CC1)C[C@@H]2C(=O)N[C@@H](CCCCCC(=O)c1ncco1)c1[nH]c(-c2ccc(F)cc2)nc1Cl [Example 97, (S)-N-((S)-1-(4-chloro-2-(4-fluorophenyl)-1H-imidazol-5-yl)-7-(oxazol-2-yl)-7-oxoheptyl)-6-ethyl-6-azaspiro[2.5]octane-1-carboxamide]	0.049	4.1	11	0.38	0.066	19000	210	–	–
O=C1CCCC[C@@](CCCCCC(=O)c2ccon2)(c2nc(-c3ccccc3F)c[nH]2)N1 [Example 72, (S)-7-(4-(2-fluorophenyl)-1H-imidazol-2-yl)-7-(6-(isoxazol-3-yl)-6-oxohexyl)azepan-2-one]	17	650	1900	89	17	> 900	> 900	–	–
COc1cc2nc(C)ccc2cc1-c1cnc([C@H](CCCCCC(=O)c2ccon2)NC(=O)[C@H]2CC23CCN(C)CC3)[nH]1 [Example 110, (S)-N-((S)-7-(isoxazol-3-yl)-1-(5-(7-methoxy-2-methylquinolin-6-yl)-1H-imidazol-2-yl)-7-oxoheptyl)-6-methyl-6-azaspiro[2.5]octane-1-carboxamide]	0.18	11	11	0.87	0.18	2500	2.7	–	–
CCn1ccc2cc(-c3c[nH]c([C@@H](N)CCCCCC(=O)c4ncco4)n3)ccc2c1=O [Example 10, (S)-6-(2-(1-amino-7-(oxazol-2-yl)-7-oxoheptyl)-1H-imidazol-4-yl)-2-ethylisoquinolin-1(2H)-one]	2.6	300	450	9.9	2.8	≥ 45000	2350	–	–
CN(C)CC(=O)N[C@@H](CCCCCC(=O)c1ncco1)c1oc(-c2ccc(F)cc2)nc1C#N [Example 190]	4.6	240	260	21	3.2	≥ 45000	3200	–	–
N#Cc1nc(-c2ccc(F)cc2)[nH]c1[C@@H](N)CCCCCC(=O)c1ncco1 [Example 185, (S)-5-(1-amino-7-(oxazol-2-yl)-7-oxoheptyl)-2-(4-fluorophenyl)-1H-imidazole-4-carbonitrile]	2.9	250	690	15	3.9	≥ 45000	6700	–	–
N[C@@H](CCCCCC(=O)c1ncco1)c1[nH]c(-c2ccc(F)cc2)nc1Cl [Example 25, (S)-7-amino-7-(4-chloro-2-(4-fluorophenyl)-1H-imidazol-5-yl)-1-(oxazol-2-yl)heptan-1-one]	0.66	340	650	5	0.38	≥ 45000	6300	–	–
COc1cc2ncccc2cc1-c1c[nH]c([C@@H](N)CCCCCC(=O)c2ncco2)n1 [Example 23, (S)-7-amino-7-(4-(7-methoxyquinolin-6-yl)-1H-imidazol-2-yl)-1-(oxazol-2-yl)heptan-1-one]	1.9	100	210	9.5	1.8	31000	660	–	–
O=C1NC(CCCCCC(=O)c2ncco2)(c2nc(-c3ccc(F)cc3)c[nH]2)CO1 (stereo not drawn) [Example 66, 4-(4-(4-fluorophenyl)-1H-imidazol-2-yl)-4-(6-(oxazol-2-yl)-6-oxohexyl)oxazolidin-2-one]	4.4	380	530	15	3.1	≥ 45000	4400	–	–
N[C@@H](CCCCCC(=O)c1ccon1)c1nc(Cl)c(-c2ccc(F)cc2)[nH]1 [Example 193, (S)-7-amino-7-(4-chloro-5-(4-fluorophenyl)-1H-imidazol-2-yl)-1-(isoxazol-3-yl)heptan-1-one]	1.8	130	1800	7.4	1.8	≥ 45000	1600	–	–
COc1cc2nc(C)ccc2cc1-c1cnc([C@H](CCCCCC(=O)c2ncco2)NC(=O)C2CCN(C)CC2)[nH]1 [Example 98, (S)-N-(1-(5-(7-methoxy-2-methylquinolin-6-yl)-1H-imidazol-2-yl)-7-(oxazol-2-yl)-7-oxoheptyl)-1-methylpiperidine-4-carboxamide]	0.34	–	–	3.6	0.64	1000	25	58	170
COc1nc(C2CC2)ccc1-c1c[nH]c([C@@H](N)CCCCCC(=O)c2ncco2)n1 [Example 24, (S)-7-amino-7-(4-(6-cyclopropyl-2-methoxypyridin-3-yl)-1H-imidazol-2-yl)-1-(oxazol-2-yl)heptan-1-one]	7.1	1400	2000	39	3.5	≥ 45000	3200	–	–
COc1cc2nc(C)ccc2cc1-c1cnc([C@H](CCCCCC(=O)c2ncco2)NC(=O)C2CN(C)C2)o1 [Example 100, (S)-N-(1-(5-(7-methoxy-2-methylquinolin-6-yl)oxazol-2-yl)-7-(oxazol-2-yl)-7-oxoheptyl)-1-methylazetidine-3-carboxamide]	0.45	–	–	1.3	0.28	620	130	19	21
Cc1ccc2cc(-c3c[nH]c([C@H](CCCCCC(=O)c4ncco4)NC4CCOCC4)n3)ccc2n1 [Example 79, (S)-7-(5-(2-methylquinolin-6-yl)-1H-imidazol-2-yl)-1-(oxazol-2-yl)-7-((tetrahydro-2H-pyran-4-yl)amino)heptan-1-one]	6.6	–	–	35	12	≥ 45000	17000	1000	1300
CCN[C@@H](CCCCCC(=O)c1ncco1)c1ncc(-c2ccc3nc(C)ccc3c2)[nH]1 [Example 74, (S)-7-(ethylamino)-7-(5-(2-methylquinolin-6-yl)-1H-imidazol-2-yl)-1-(oxazol-2-yl)heptan-1-one]	1.6	140	200	5	1.8	≥ 45000	4500	–	–
COc1nc2ccccc2cc1-c1cnc(CCCCCCC(=O)c2ncco2)[nH]1 [Example 73, 7-(5-(2-methoxyquinolin-3-yl)-1H-imidazol-2-yl)-1-(oxazol-2-yl)heptan-1-one]	3.3	840	15	16	4.2	2500	3900	–	–
